Test system: HepG2 tumor
Assay: Anti-tumor activity in vivo, HepG2 mice model
Set-up: species or system CD-1 nu/nu mice
Conditions: CHis6-rAGAP 1 and 2 mg/kg, 5-FU 25 mg/kg, every 2 days
Method: The CD-1 nu/nu mice (thymus removed, bodyweight 16˜18 g, half male and half female) were purchased from Shanghai Experiment Animal Center of Chinese Academy of Sciences. The mice were subcutaneously injected 5×10^6 HepG2 cells to make a model, when the tumor volume was grew to about 100 mm^3, the mice were randomized into four groups, 10 mice in each group, the experiment groups were respectively injected 1 mg/kg and 2 mg/kg of CHis6-rAGAP, the positive control group were injected 25 mg/kg of 5-FU, the negative control group was injected with normal saline, the volumes were all 200 μl/2 days. The change of tumor volume and bodyweight of the mice were determined every 2 days, after 18 days the mice were killed, and the tumor were taken out. […] In order to evaluate the influence of CHis6-rAGAP and 5-FU on life quality of the mice, change of mice bodyweight was also determined during the experiment. […] Furthermore, after 18 days of drug administration, there was no death case in the mice of CHis6-rAGAP administration group, whereas 40% of the mice in 5-FU group were dead.

Structure (SMILES): O=c1[nH]cc(F)c(=O)[nH]1 [5-FU]
- death of mice after 18 days of drug administration: 40%
- influence on bodyweight of the mice (18 days): reduced significantly
